Three compounds from publication PMC9706565, “Covalently Conjugated NOD2/TLR7 Agonists Are Potent and Versatile Immune Potentiators” (Journal of Medicinal Chemistry, 2022) can be followed below.

Structures are written as SMILES. ≈ marks a conversion by molar mass, not a printed value.

Series [1] has as its system human PBMCs. Description: Cytokine release from peripheral blood mononuclear cells. Format: cell-based. As to conditions: 1 μM, 18 h.
Description: Human PBMCs from healthy and consenting donors were isolated from heparinized blood by density gradient centrifugation using Ficoll-Paque (Pharmacia, Sweden).
Peripheral blood mononuclear cells were seeded (1 × 10^6 cells/mL) in 24-well plates in 500 μL of growth medium and treated with the compounds (1 μM), lipopolysaccharide (LPS; 1 μg/mL), or the corresponding vehicle (0.1% DMSO). Cell-free supernatants were collected after 18 h of incubation (37 °C, 5% CO2) and stored at −80 °C until tested. Cytokine production was determined with BD Cytometric Bead Array human inflammatory cytokines kit (BD Bioscience) on an Attune NxT flow cytometer (Thermo Fisher Scientific, Waltham, MA). Standard curves were generated using recombinant cytokines contained in the kit. The data were analyzed using the FlowJo (Tree Star, Inc., Ashland, OR) and Prism (GraphPad, San Diego, CA) software. Statistical significance was determined with one-way ANOVA with subsequent Bonferroni’s multiple comparisons test.
For series [2], the target named is T1, TLR7 (Homo sapiens, UniProt Q9NYK1).
T1 construct: host or cells: HEK-Blue TLR7 (HEK293-derived)
T1 sequence (Q9NYK1 27-1049): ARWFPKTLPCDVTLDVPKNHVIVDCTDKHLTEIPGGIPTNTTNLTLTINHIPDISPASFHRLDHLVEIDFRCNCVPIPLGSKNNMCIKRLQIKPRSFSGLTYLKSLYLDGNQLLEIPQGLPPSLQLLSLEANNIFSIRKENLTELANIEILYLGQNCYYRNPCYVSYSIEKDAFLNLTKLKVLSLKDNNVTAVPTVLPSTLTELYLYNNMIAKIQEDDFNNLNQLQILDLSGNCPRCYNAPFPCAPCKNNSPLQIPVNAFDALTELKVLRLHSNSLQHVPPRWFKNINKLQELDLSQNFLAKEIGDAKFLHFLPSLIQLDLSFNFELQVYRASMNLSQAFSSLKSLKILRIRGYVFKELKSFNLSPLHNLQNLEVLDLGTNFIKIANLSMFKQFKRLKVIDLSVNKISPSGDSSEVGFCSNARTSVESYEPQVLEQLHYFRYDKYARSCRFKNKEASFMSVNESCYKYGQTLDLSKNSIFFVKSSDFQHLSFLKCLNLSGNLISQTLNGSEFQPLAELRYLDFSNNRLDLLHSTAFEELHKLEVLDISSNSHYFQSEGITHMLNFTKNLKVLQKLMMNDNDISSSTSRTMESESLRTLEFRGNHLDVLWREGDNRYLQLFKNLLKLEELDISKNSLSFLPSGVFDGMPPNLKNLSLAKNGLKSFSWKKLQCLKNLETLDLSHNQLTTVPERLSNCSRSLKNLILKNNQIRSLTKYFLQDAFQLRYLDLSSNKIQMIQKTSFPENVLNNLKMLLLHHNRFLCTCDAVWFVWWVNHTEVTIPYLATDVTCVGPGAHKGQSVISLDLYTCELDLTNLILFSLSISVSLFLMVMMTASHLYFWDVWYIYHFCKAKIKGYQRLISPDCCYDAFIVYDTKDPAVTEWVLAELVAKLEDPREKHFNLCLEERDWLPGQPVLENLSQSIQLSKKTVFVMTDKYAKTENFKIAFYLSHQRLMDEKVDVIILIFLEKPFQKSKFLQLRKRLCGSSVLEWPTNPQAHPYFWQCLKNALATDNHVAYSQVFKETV
The series can be described thus: NF-κB transcriptional activity (SEAP reporter) in HEK-Blue TLR7 cells. Type of series: cell-based. The note with it: for EC50: HEK-Blue TLR7 cells, 18 h, eight concentrations 1 nM to 10 μM, NA, not active. From the text: (§1) HEK-Blue NOD1 (Cat. code: hkb-hnod1), NOD2 (Cat. code: hkb-hnod2), and TLR7 (Cat. code: hkb-htlr7) cell lines (Invivogen, San Diego, CA) are derived from HEK293 cells by co-transfection of the hNOD1, hNOD2, or hTLR7 genes, respectively, and a nuclear factor-κB (NF-κB)-inducible secreted embryonic alkaline phosphatase (SEAP) reporter gene. Following activation of the respective receptors, the resulting NF-κB induces the production of SEAP, the levels of which can be quantified colorimetrically. […] All of the subsequent passages were cultured in medium additionally supplemented with 100 μg/mL Zeocin (Invivogen) and 30 μg/mL Blasticidin (Invivogen) for HEK-Blue NOD1 and NOD2 cells, or with 100 μg/mL Zeocin (Invivogen) and 10 μg/mL Blasticidin (Invivogen) for HEK-Blue TLR7 cells.
(§2) After 18 h of incubation (37 °C, 5% CO2), SEAP activity was determined spectrophotometrically as absorbance at 630 nm (BioTek Synergy microplate reader; Winooski, VT). EC50 values were calculated using the Prism software (version 9; GraphPad Software, CA).

The nature of series [3]: Kinetic solubility measurement. The note with it: phosphate-buffered saline, aqueous buffer, kinetic from dmso stock; kinetic, PBS pH 7.4, 2% DMSO, 2 h room temperature. Format: physicochemical.
Description: The content of DMSO in all solutions was fixed to 2% by adding the respective amounts of DMSO. The column used was Waters Acquity UPLC BEH C18 (1.7 μm, 2.1 × 50 mm^2). […] The column was thermostated at 40 °C.
The test system of series [4] is MEC1 cells. The series can be described thus: PBMC cytotoxicity against MEC1 cancer cells. Format: cell-based, human. The note with it: PBMCs stimulated 18 h, 1 μM; 4 h coincubation, effector:target 40:1. How it is done: (§3) K562 cells are a chronic myelogenous leukemia cell line (Cat. code: CCL-243; ATCC, Manassas, VA)[60] and MEC1 cells are a B-chronic lymphocytic leukemia cell line (Cat. code: ACC 497; DSMZ GmbH, Braunschweig, Germany).[61]
(§4) The PBMC cytotoxicity assays using K562 and MEC1 cells were performed as described previously, with some modifications.[64] PBMCs were seeded (4 × 10^5 cells/well) in duplicate in 96-well U-bottom plates and treated with the compounds (1 nM–1 μM) or vehicle (0.1% DMSO) for 18 h. […] Cells that were positive for both CFSE and Sytox blue were defined as dead K562 and MEC1 cells. The gating strategy is described in Figure S4. PBMCs alone and CFSE-labeled cancer cells alone were also treated with the compounds at the same concentrations and stained with Sytox blue to exclude any direct cytotoxicity of the compounds toward the PBMCs and cancer cells. Statistical significance was determined with one-way ANOVA with subsequent Bonferroni’s multiple comparisons test.

Series [5] concerns K562 cells. Description: PBMC cytotoxicity against K562 cancer cells. Format: cell-based. Here is the method: as §3, §4
Series [6] addresses T2, NOD2 (Homo sapiens, UniProt Q9HC29).
T2 construct: host or cells: HEK-Blue NOD2 (HEK293-derived)
Description: NF-κB transcriptional activity (SEAP reporter) in HEK-Blue NOD2 cells. The note with it: 18 h, eight concentrations 1 nM to 10 μM, NA, not active. Type of series: cell-based.
Source text: as §1, §2

Series [7] concerns RAW-Blue cells. Description: NF-κB transcriptional activity in RAW-Blue cells with or without NOD2/TLR7 antagonists. Type of series: cell-based, murine. As to conditions: 1 μM, 18 h; SG84 (5 μM), M5049 (1 μM). Here is the method: After the first two passages, 200 μg/mL Zeocin (Invivogen) was added to the medium every other passage, to maintain the selection pressure.
RAW-Blue cells were seeded (100,000 cells/well) in duplicate in 96-well plates in 200 μL of growth medium (without Normocin and Zeocin) and pretreated with a NOD2 antagonist SG84 (5 μM),[35] TLR7 antagonist M5049 (1 μM),[36] or both for 1 h, before the addition of compounds (1 μM) or the corresponding vehicle (0.1% DMSO). After 18 h of incubation (37 °C, 5% CO2), 10 μL of the induced supernatant was added to 90 μL of QUANTI-Blue solution (Invivogen). After 2 h of incubation (37 °C), SEAP activity was determined spectrophotometrically as absorbance at 630 nm (BioTek Synergy microplate reader; Winooski, VT). Statistical significance was determined with two-way ANOVA with subsequent Dunnett’s multiple comparisons test.

T2 sequence (Q9HC29 whole entry): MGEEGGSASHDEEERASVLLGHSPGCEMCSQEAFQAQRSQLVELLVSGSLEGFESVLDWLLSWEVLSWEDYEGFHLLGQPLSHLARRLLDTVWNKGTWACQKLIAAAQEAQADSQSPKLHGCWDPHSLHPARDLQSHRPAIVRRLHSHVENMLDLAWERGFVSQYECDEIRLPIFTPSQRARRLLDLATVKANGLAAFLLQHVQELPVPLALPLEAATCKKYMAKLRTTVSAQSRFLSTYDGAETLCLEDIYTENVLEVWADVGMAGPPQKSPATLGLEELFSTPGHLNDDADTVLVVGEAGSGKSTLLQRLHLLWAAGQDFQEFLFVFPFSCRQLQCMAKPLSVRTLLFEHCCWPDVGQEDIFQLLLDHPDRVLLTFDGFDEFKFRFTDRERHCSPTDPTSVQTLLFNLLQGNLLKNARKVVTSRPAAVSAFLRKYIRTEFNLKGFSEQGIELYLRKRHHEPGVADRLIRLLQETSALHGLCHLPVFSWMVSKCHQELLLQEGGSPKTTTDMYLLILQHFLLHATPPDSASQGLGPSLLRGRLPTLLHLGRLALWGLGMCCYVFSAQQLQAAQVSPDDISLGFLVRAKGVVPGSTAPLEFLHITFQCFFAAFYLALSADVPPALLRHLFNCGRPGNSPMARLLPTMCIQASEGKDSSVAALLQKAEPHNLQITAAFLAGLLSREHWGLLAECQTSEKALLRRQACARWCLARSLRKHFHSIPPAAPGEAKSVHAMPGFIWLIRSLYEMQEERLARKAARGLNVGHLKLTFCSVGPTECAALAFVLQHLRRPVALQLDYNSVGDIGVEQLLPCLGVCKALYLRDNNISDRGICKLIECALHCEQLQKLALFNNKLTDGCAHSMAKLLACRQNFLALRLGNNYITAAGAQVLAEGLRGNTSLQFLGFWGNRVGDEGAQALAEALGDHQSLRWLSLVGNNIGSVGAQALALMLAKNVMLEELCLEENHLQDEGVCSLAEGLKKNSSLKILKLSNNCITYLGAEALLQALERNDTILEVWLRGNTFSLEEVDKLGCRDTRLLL

For the compound `CCOC(=O)CC[C@@H](NC(=O)[C@@H](NC(=O)CNC(=O)/C=C/c1ccc(O)c(OC)c1)C(C)C)C(=O)OCC` [Compound 2, Diethyl ((E)-3-(4-hydroxy-3-methoxyphenyl)acryloyl)glycyl-L-valyl-D-glutamate], the IL-8 production entry in series [1] is given as “significant increase”.

For the compound `CCCCOc1nc(N)c2nc(O)n(Cc3ccc(C(=O)O)cc3)c2n1` [Compound 1, 4-((6-Amino-2-butoxy-8-hydroxy-9H-purin-9-yl)methyl)benzoic acid, reference compound], in series [2], the EC50 turned out to be 398 nM.

With `CCCCOc1nc(N)c2nc(O)n(Cc3ccc(C(=O)NCCCCCC(=O)Oc4ccc(/C=C/C(=O)NCC(=O)N[C@H](C(=O)N[C@H](CCC(=O)OCC)C(=O)OCC)C(C)C)cc4OC)cc3)c2n1` [Compound 3, Diethyl ((E)-3-(4-((6-(4-((6-amino-2-butoxy-8-hydroxy-9H-purin-9-yl)methyl)benzamido)hexanoyl)-oxy)-3-methoxyphenyl)acryloyl)glycyl-L-valyl-D-glutamate], the EC50 in series [2] turned out to be 161 nM; in series [6] it was 114 nM. Further, in series [2] (ratio of EC50 values in HEK-Blue TLR7 cells), the “fold improved TLR7 activity over 1” value is reported as “approximately 2 fold”. The compound further displayed a solubility at 2 h in series [3] of 27.4 µM (≈ 27.1 µg/mL). In addition, the “cytolytic activity of PBMCs against MEC1 cells” value in series [4] is given as “significantly enhanced”. Also, the “cytolytic activity of PBMCs against K562 cells” value in series [5] (PBMCs stimulated 18 h, 1 μM, 4 h coincubation, effector:target 40:1) is listed as “significantly enhanced”. The “concentration at which significant PBMC cytotoxicity was observed” value in series [5] (tested 1 nM-1 μM, cancer cell line not specified (K562 or MEC1, Figure S5)) came out at 1000 nM. The “RAW-Blue activity in the presence of NOD2 or TLR7 antagonist” value in series [7] is listed as “decrease in activity after antagonizing TLR7 was more prominent”.
